Where two headings read alike, the source gives them in different places.
Tests used:
CV-1 cells = assay: selective killing assay, colony number reduced to 50% of control, normal monkey kidney epithelial cell line CV-1; assay type: cell-based; conditions: 24 hours treatment; for IC50: Primates
Description: (§1) The control received culture media only.

MCF-7 cells = assay: colony assay of Example 1 with human breast carcinoma MCF-7 cell line; assay type: cell-based; conditions: for Selectivity: CV-1/MCF-7; for IC50: Homo sapiens, MCF7, 24 h, Table VI, human breast carcinoma, 24 hours treatment
Description: as §1

CX-1 cells = assay: selective killing assay, colony number reduced to 50% of control, human colon carcinoma cell line CX-1; assay type: cell-based; conditions: for Selectivity (ratio of IC50 for CV-1 and IC50 for CX-1): CV-1/CX-1; for IC50 / CX-1 (IC50): human colon carcinoma, 24 hours treatment, colony count after 7 to 10 days;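 for all read-outs here: colonies stained with crystal violet and counted, control cells given medium alone, exposure at 37 °C, normal monkey kidney epithelial CV-1 cells as the non-cancer comparator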
Protocol: (§2) Human colon carcinoma cell line CX-1 or normal monkey kidney epithelial cell line CV-1 was chosen as representatives of cancer cells and normal cells, respectively. […] CX-1 cells (2,000 cells/well) and CV-1 cells (1,000 cells/well) were plated in 24-well plastic culture plates. […] The control received culture media only. Cells were treated with compounds of General Formulas (I) to (V) at 37° C. for 24 hours. After rinsing with fresh culture medium three times, the cells were further incubated at 37° C. for 7 to 10 days. Cell colonies were fixed and stained with 2% crystal violet in 70% ethanol for 10 minutes and rinsed in water. […] The selectivity is defined as the ratio of IC50 for CV-1 and IC50 for CX-1.

LOX cells = assay: colony assay of Example 1 with human melanoma LOX cell line; assay type: cell-based; conditions: for Selectivity: CV-1/LOX; for IC50: Homo sapiens, LOX, 24 h; for IC50 / LOX(IC50): Table V, human melanoma, 24 hours treatment;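 for all read-outs here: colony formation assay with 24 h exposure at 37 °C, then 7 to 10 days of regrowth, crystal violet staining of colonies, control wells given medium alone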
Protocol: as §2

human melanoma LOX = assay: survival of nude mice implanted with human melanoma LOX; assay type: in vivo, male athymic Swiss nu/nu mouse (human tumor)
Protocol: LOX, a human melanoma cell line, grown subcutaneously in nude mice was excised, trypsinized to yield a single cell suspension using a metal grid with a […] mesh. […] Five million viable trypan blue negative cells made up in 0.1 ml of Dulbecco modified Eagle medium (DMFE) were injected into the peritoneal cavity of a male athymic Swiss nu/nu mouse. The control group and each treatment group consisted of 5 to 10 mice. Treatment was commenced the following day by intraperitoneal injection.
Ten control mice received 0.25 ml of 2% dextrose on these days the treated groups were injected with the compounds of this invention. […] T/C is the ratio, expressed as a percentage of the mean survival age of the treated group to the mean survival age of the untreated control group.

EJ cells = assay: colony assay of Example 1 with human bladder carcinoma EJ cell line; assay type: cell-based; conditions: for Selectivity: CV-1/EJ; for IC50: Homo sapiens, EJ, 24 h; for IC50 / EJ (IC50): Table IV, human bladder carcinoma, 24 hours treatment;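 for all read-outs here: colony formation assay with 24 h compound exposure at 37 °C, then 7–10 days drug-free regrowth, colonies stained with crystal violet, controls given medium alone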
CRL 1420 cells = assay: colony assay of Example 1 with human pancreatic carcinoma CRL 1420 cell line; assay type: cell-based; conditions: for Selectivity: CV-1/CRL-1420; for IC50: Homo sapiens, 24 h; for IC50 / CRL-1420(IC50): Table VII, human pancreatic carcinoma, 24 hours treatment;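 for all read-outs here: colony formation assay, cells exposed for 24 h then regrown 7 to 10 days without compound, colonies stained with crystal violet, control given medium alone, normal reference CV-1 monkey kidney epithelial cells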
Protocol: as §2

[1] = CV-1, Table III, normal monkey kidney epithelial cells, colony count after 7 to 10 days
[2] = Mus musculus, ip, 24 h, 5 mg/kg i.p. on day 1, 4, 8, 11, read-out: T/C
[3] = Table III, normal monkey kidney epithelial cells, colony count after 7 to 10 days
[4] = 5 mg/kg i.p. on day 1, 4, 8, 11

Row | Compound | IC50 (CV-1 cells; CV-1, 24 h, Table VI) [µg/mL] | Selectivity (MCF-7 cells) | IC50 (MCF-7 cells) [µg/mL] | IC50 (CV-1 cells; CV-1, 24 h, Table V) [µg/mL] | IC50 (CV-1 cells; [1]) [µg/mL] | Selectivity (ratio of IC50 for CV-1 and IC50 for CX-1) (CX-1 cells) | Selectivity (LOX cells) | IC50 (LOX cells) [µg/mL] | IC50 (CV-1 cells; CV-1, 24 h, Table IV) [µg/mL] | IC50 (CX-1 cells; Homo sapiens, CX-1, Table III) [µg/mL] | Selectivity (EJ cells) | IC50 (EJ cells) [µg/mL] | Selectivity (CRL 1420 cells) | IC50 (CRL 1420 cells) [µg/mL] | further results
1 | CCn1c(=Cc2sc3ccc4ccccc4c3[n+]2CC)sc(=C2Oc3ccc4ccccc4c3N2C)c1=O [Compound 116] | 6 | 150 | 0.04 | – | – | – | – | – | – | – | – | – | – | – | –
2 | CCn1c(=Cc2sc3ccc4ccccc4c3[n+]2CC)sc(=C2SCCN2C)c1=O [Compound 224] | 20 | 200 | 0.1 | 20 | 20 | 250 | 200 | 0.1 | – | – | – | – | – | – | IC50 (CX-1 cells; CX-1, Table III): 0.08 µg/mL; response vs control in vivo at 3 mg/kg (human melanoma LOX; Mus musculus, ip, 24 h, 3 mg/kg i.p. on day 1, 4, 8, 10, 12, read-out: T/C): 161%
3 | CCn1c(=Cc2oc3ccc4ccccc4c3[n+]2CC)sc(=C2Sc3ccccc3N2C)c1=O [Compound 337] | 8 | 160 | 0.05 | 8 | 8 | 100 | 800 | 0.01 | 8 | 0.08 | 267 | 0.03 | – | – | response vs control in vivo at 5 mg/kg (human melanoma LOX; Mus musculus, ip, 24 h, 5 mg/kg i.p. on day 1, 3, 4, 6, 8, 10, 13, read-out: T/C): 137%
4 | CCn1c(=Cc2oc3ccc4ccccc4c3[n+]2CC)sc(=C2Oc3c(ccc4ccccc34)N2C)c1=O [Compound 253] | 6 | 200 | 0.03 | 6 | 6 | 120 | 1200 | 0.005 | 6 | 0.05 | 300 | 0.02 | 200 | 0.03 | IC50 (CV-1 cells; CV-1, 24 h, Table VII): 6 µg/mL
5 | CCn1c(=Cc2oc3ccccc3[n+]2C)oc(=C2Sc3ccccc3N2C)c1=O [Compound 11] | – | – | – | > 30 | > 20 | > 667 | > 300 | < 0.1 | > 20 | 0.03 | > 400 | 0.05 | – | – | response vs control in vivo at 5 mg/kg (human melanoma LOX; [2]): 132%
6 | CCn1c(=C2CC[n+]3c2sc2ccccc23)sc(=C2Sc3ccccc3N2C)c1=O [Compound 29] | 10 | 200 | 0.05 | 10 | 10 | 333 | 333 | 0.03 | 10 | 0.03 | 200 | 0.05 | 500 | 0.02 | IC50 (CV-1 cells; CV-1, 24 h, Table VII): 10 µg/mL
7 | CCn1c(=Cc2oc3c4ccccc4ccc3[n+]2CC)sc(=C2Oc3ccc4ccccc4c3N2C)c1=O [Compound 254] | 6 | 200 | 0.03 | 6 | – | 120 | 1200 | 0.005 | 6 | – | 600 | 0.01 | 1200 | 0.005 | IC50 (CV-1 cells; CV-1, 24 h, Table VII): 6 µg/mL; CX-1 (IC50) (CX-1 cells; Table III): 0.05 µg/mL
8 | CCn1c(=Cc2scc(C)[n+]2CC)sc(=C2Sc3ccccc3N2C)c1=O [Compound 339] | – | – | – | 10 | – | – | 333 | 0.03 | – | – | – | – | – | – | response vs control in vivo at 5 mg/kg (human melanoma LOX; Mus musculus, ip, 24 h, 5 mg/kg i.p. on day 1, 4, 8, 10, 12, read-out: T/C): > 340%
9 | CCn1c(=Cc2sc3ccc4ccccc4c3[n+]2CC)sc(=C2Sc3ccccc3N2C)c1=O [Compound 338] | – | – | – | 2 | – | – | 400 | 0.005 | – | – | – | – | – | – | response vs control in vivo at 4 mg/kg (human melanoma LOX; Mus musculus, ip, 24 h, 4 mg/kg i.p. on day 1, 3, 4, 6, 8, 10, 13, read-out: T/C): 194%
10 | CCn1c(=Cc2oc3c4ccccc4ccc3[n+]2CC)sc(=C2Sc3ccc4ccccc4c3N2C)c1=O [Compound 85] | – | – | – | – | 6 | 750 | > 600 | < 0.01 | – | 0.008 | 857 | 0.007 | 600 | 0.01 | response vs control in vivo at 5 mg/kg (human melanoma LOX; Mus musculus, ip, 24 h, 5 mg/kg i.p. on day 1, 4, 8, 11, 15, read-out: T/C): 174%
11 | CCn1c(=Cc2oc3ccccc3[n+]2C)sc(=C2Sc3ccccc3N2C)c1=O [Compound 14] | – | – | – | – | – | 667 | > 300 | – | – | – | 400 | – | 400 | – | CV-1 (IC50) (CV-1 cells; [3]): 20 µg/mL; CV-1 (IC50) (CV-1 cells; Table IV): 20 µg/mL; CV-1 (IC50) (CV-1 cells; Table V): > 30 µg/mL; CV-1 (IC50) (CV-1 cells; Table VII): 20 µg/mL; CX-1 (IC50) (CX-1 cells; Table III): 0.03 µg/mL; EJ (IC50) (EJ cells): 0.05 µg/mL; LOX(IC50) (LOX cells): < 0.1 µg/mL; CRL-1420(IC50) (CRL 1420 cells): 0.05 µg/mL; T/C (human melanoma LOX; [4]): 147%
12 | CCn1c(=Cc2sc3c4ccccc4ccc3[n+]2CC)sc(=C2Sc3ccc4ccccc4c3N2C)c1=O [Compound 204] | – | – | – | – | – | 667 | 222 | – | – | – | – | – | 500 | – | CV-1 (IC50) (CV-1 cells; [3]): 20 µg/mL; CV-1 (IC50) (CV-1 cells; Table V): 20 µg/mL; CV-1 (IC50) (CV-1 cells; Table VII): 20 µg/mL; CX-1 (IC50) (CX-1 cells; Table III): 0.03 µg/mL; LOX(IC50) (LOX cells): 0.09 µg/mL; CRL-1420(IC50) (CRL 1420 cells): 0.04 µg/mL; response vs control in vivo at 10 mg/kg (human melanoma LOX; Mus musculus, ip, 24 h, 10 mg/kg i.p. on day 1, 4, 8, 10, 12, read-out: T/C): > 270%
13 | CCn1c(=Cc2oc3c4ccccc4ccc3[n+]2CC)sc(=C2Sc3ccc4ccccc4c3N2C)c1=O [Compound 315] | 20 | 400 | 0.05 | – | – | – | 4000 | – | – | – | 4000 | – | 4000 | – | EJ (IC50) (EJ cells): 0.005 µg/mL; LOX(IC50) (LOX cells): 0.005 µg/mL; CRL-1420(IC50) (CRL 1420 cells): 0.005 µg/mL
14 | CCn1c(=Cc2oc3cc4ccccc4cc3[n+]2CC)sc(=C2C=Cc3ccccc3N2C)c1=O [Compound 227] | 8 | 160 | 0.05 | 8 | 8 | 100 | 267 | 0.03 | 8 | 0.08 | 160 | 0.05 | 160 | 0.05 | IC50 (CV-1 cells; CV-1, 24 h, Table VII): 8 µg/mL
15 | CCn1c(=Cc2oc3ccccc3[n+]2C)sc(=C2Sc3ccccc3N2C)c1=O [Compound 15] | – | – | – | – | – | 1000 | 286 | – | – | – | 100 | – | 500 | – | CV-1 (IC50) (CV-1 cells; [3]): 20 µg/mL; CV-1 (IC50) (CV-1 cells; Table IV): 20 µg/mL; CV-1 (IC50) (CV-1 cells; Table V): 20 µg/mL; CV-1 (IC50) (CV-1 cells; Table VII): 20 µg/mL; CX-1 (IC50) (CX-1 cells; Table III): 0.02 µg/mL; EJ (IC50) (EJ cells): 0.2 µg/mL; LOX(IC50) (LOX cells): 0.07 µg/mL; CRL-1420(IC50) (CRL 1420 cells): 0.04 µg/mL; T/C (human melanoma LOX; [4]): 163%
16 | CCn1c(=CC2=[N+](CC)CCS2)sc(=C2SC3=C(CCCC3)N2C)c1=O [Compound 340] | 20 | 200 | 0.1 | – | – | – | – | – | – | – | – | – | – | – | response vs control in vivo at 8 mg/kg (human melanoma LOX; Mus musculus, ip, 24 h, 8 mg/kg i.p. on day 1, 3, 8, 13, read-out: T/C): 194%
17 | CCn1c(=Cc2sc3ccccc3[n+]2CC)sc(=C2Sc3ccc4ccccc4c3N2C)c1=O [Compound 310] | – | – | – | 2 | – | – | 400 | 0.005 | 2 | – | 400 | 0.005 | 400 | 0.005 | IC50 (CV-1 cells; CV-1, 24 h, Table VII): 2 µg/mL; response vs control in vivo at 8 mg/kg (human melanoma LOX; Mus musculus, ip, 24 h, 8 mg/kg i.p. on day 1, 3, 4, 6, 8, 10, read-out: T/C): 206%
18 | CCn1c(=Cc2oc3cc4ccccc4cc3[n+]2CC)sc(=C2Sc3ccccc3N2C)c1=O [Compound 22] | – | – | – | 10 | 10 | 1000 | 100 | 0.1 | 20 | 0.01 | 100 | 0.2 | – | – | response vs control in vivo at 5 mg/kg (human melanoma LOX; [2]): 179%

Source: patent publication US5360803A, “Composition and method for treating cancer” (Dan Farber Cancer Institute, priority 1992, dated 1994)
